Measured values published in ChEMBL document CHEMBL3272329, “Stereochemical analogs of a muscarinic, ganglionic stimulant. 2. Cis and trans olefinic, epoxide, and cyclopropane analogs related to 4-[N-(3-chlorophenyl)carbamoyloxy]-2-butynyltrimethylammonium chloride (McN-A-343)” (1976).
Active and inactive are the calls of the source. The calls are words filed in the database; no cut-off is given here.

Tests used:
Oryctolagus cuniculus [1] = species: Oryctolagus cuniculus; test: Agonist activity at muscarinic receptor in rabbit ileum assessed as […]; type: tissue-based
Felis catus [2] = test: Induction of ganglion stimulating activity in cat assessed as increase in blood pressure at 1 to 300 ug/kg, iv by […]; type: functional
Felis catus [3] = test: Induction of ganglion stimulating activity in iv dosed cat assessed as slight increase in blood pressure administered at 300 ug/kg, iv by […]; type: functional, organism-based
Oryctolagus cuniculus [4] = species: Oryctolagus cuniculus; test: Agonist activity at muscarinic receptor in rabbit ileum assessed as […] relative to acetylcholine; type: tissue-based

Row | SMILES | Activity (Oryctolagus cuniculus [1]) | Activity (Felis catus [2]) | other results
1 | CN(C)C[C@@H]1C[C@@H]1CO (relative stereo) | inactive | – | –
2 | CN(C)C[C@H]1C[C@@H]1CO (relative stereo) | inactive | – | –
3 | C[N+](C)(C)C[C@H]1O[C@@H]1COC(=O)Nc1ccc(Cl)cc1 (relative stereo) | inactive | Active | –
4 | C[N+](C)(C)C/C=C\COC(=O)Nc1ccc(Cl)cc1.[I-] | inactive | – | fold change (FC) (Felis catus [2]): 3; Activity (Felis catus [3]): Active
5 | C[N+](C)(C)C/C=C/COC(=O)Nc1cccc(Cl)c1 | – | – | Activity (Felis catus [3]): Active
6 | C[N+](C)(C)CC#CCOC(=O)Nc1cccc(Cl)c1 | – | Active | –
7 | C[N+](C)(C)C[C@@H]1C[C@H]1COC(=O)Nc1ccc(Cl)cc1 | – | inactive | –
8 | C[N+](C)(C)C[C@H]1C[C@H]1COC(=O)Nc1ccc(Cl)cc1 (relative stereo) | – | inactive | –
9 | C[N+](C)(C)C/C=C/COC(=O)Nc1ccc(Cl)cc1.[I-] | – | – | fold change (FC) (Felis catus [2]): 3; Activity (Oryctolagus cuniculus [4]): 1%
10 | C[N+](C)(C)CC#CCOC(=O)Nc1ccc(Cl)cc1 | – | Active | –
11 | C[N+](C)(C)C[C@H]1O[C@H]1COC(=O)Nc1ccc(Cl)cc1 (relative stereo) | inactive | Active | –
